Literature values, collected in US20260335319A1, “INJECTABLE COMPOSITIONS OF METOLAZONE” (CIPLA LIMITED, priority 2023, published 2026).
Like-named read-outs stand apart in the source and are kept apart here.

What was measured:
[1] = relative to water

SMILES: Cc1ccccc1N1C(=O)c2cc(S(N)(=O)=O)c(Cl)cc2NC1C (centres unmarked) [Metolazone, 7-chloro-1,2,3,4-tetrahydro-2-methyl-3-(2-methylphenyl)-4-oxo-6-quinazolinesulfonamide]
- absorption (metolazone, general): variable absorption
- bioavailability (metolazone, general): poor bioavailability
- absorption (oral immediate release tablet): erratic absorption
- bioavailability (oral immediate release tablet): variable bioavailability
- solubility in alkali and organic solvents [1]: more soluble in alkali, and organic solvents
